Assay results taken from US10550105B2 (Ribon Therapeutics Inc., priority 2018, dated 2020).

target: PARP7 (Homo sapiens (Human), UniProt Q7Z3E1); test: Enzymatic assay for inhibition of PARP7: TR-FRET displacement of biotinylated Probe A from the TIPARP active site; assay type: binding; conditions: Table A-1
How it was run: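 Compound dose-response series were incubated with TIPARP and biotinylated Probe A, with a final 30 min step at 25 °C. TR-FRET was read at 320 nm excitation, 615/665 nm emission and 90 μs delay, using the 665/615 ratio to measure complex formation. % inhibition was fitted with a floating or fixed (1) Hill coefficient.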

PARP7, sequence (Q7Z3E1 whole entry): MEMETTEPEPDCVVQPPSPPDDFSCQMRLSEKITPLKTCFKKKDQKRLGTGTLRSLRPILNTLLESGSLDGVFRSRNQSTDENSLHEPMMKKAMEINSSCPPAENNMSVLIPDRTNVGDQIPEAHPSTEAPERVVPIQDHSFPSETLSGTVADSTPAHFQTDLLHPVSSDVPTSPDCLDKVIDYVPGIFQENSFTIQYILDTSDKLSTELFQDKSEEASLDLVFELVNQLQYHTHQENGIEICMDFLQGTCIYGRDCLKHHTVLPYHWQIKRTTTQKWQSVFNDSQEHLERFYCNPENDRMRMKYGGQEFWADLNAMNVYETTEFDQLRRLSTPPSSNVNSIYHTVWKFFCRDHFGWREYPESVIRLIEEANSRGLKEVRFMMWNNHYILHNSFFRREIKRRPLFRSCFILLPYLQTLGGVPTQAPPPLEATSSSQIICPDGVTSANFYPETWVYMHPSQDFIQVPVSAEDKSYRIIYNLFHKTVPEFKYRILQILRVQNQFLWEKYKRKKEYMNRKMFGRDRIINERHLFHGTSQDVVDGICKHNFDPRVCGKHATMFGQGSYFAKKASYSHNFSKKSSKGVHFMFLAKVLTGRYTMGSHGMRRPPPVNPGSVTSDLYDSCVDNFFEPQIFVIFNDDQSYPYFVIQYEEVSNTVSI

| IC50 [nM] | Compound |
| --- | --- |
| < 100 | Cc1ccc(N2CCN(C(=O)c3cccc(OC[C@@H]4CCCN4c4cn[nH]c(=O)c4C(F)(F)F)c3)CC2)nc1 [Example 446, (S)-5-(2-((3-(4-(5-Methylpyridin-2-yl)piperazine-1-carbonyl)phenoxy)methyl)pyrrolidin-1-yl)-4-(trifluoromethyl)pyridazin-3(2H)-one] |
| < 100 | Cc1cnc(N2CCN(C(=O)c3cccc(OC[C@@H]4CCCN4c4cn[nH]c(=O)c4C(F)(F)F)c3)CC2)nc1 [Example 447, (S)-5-(2-((3-(4-(5-Methylpyrimidin-2-yl)piperazine-1-carbonyl)phenoxy)methyl)pyrrolidin-1-yl)-4-(trifluoromethyl)pyridazin-3(2H)-one] |
| 100 to 1000 | O=C(COC[C@@H]1CCCN1c1cn[nH]c(=O)c1C(F)(F)F)N1CCN(c2ccccn2)CC1 [Example 448, (S)-5-(2-((2-Oxo-2-(4-(pyridin-2-yl)piperazin-1-yl)ethoxy)methyl)pyrrolidin-1-yl)-4-(trifluoromethyl)pyridazin-3(2H)-one] |
| 100 to 1000 | CC(=O)N1CCN(C(=O)c2cccc(OC[C@@H]3CCCN3c3cn[nH]c(=O)c3C(F)(F)F)c2)CC1 [Example 449, (S)-5-(2-((3-(4-Acetylpiperazine-1-carbonyl)phenoxy)methyl)pyrrolidin-1-yl)-4-(trifluoromethyl)pyridazin-3(2H)-one] |
| < 100 | CC1CN(c2ccc(C#N)cn2)CCN1C(=O)c1cccc(OC[C@@H]2CCCN2c2cn[nH]c(=O)c2C(F)(F)F)c1 (stereo partly drawn) [Example 450, 6-(3-methyl-4-(3-(((S)-1-(6-Oxo-5-(trifluoromethyl)-1,6-dihydropyridazin-4-yl)pyrrolidin-2-yl)methoxy)benzoyl)piperazin-1-yl)nicotinonitrile] |
| 100 to 1000 | O=C(c1cccc(OC[C@@H]2CCCN2c2cn[nH]c(=O)c2C(F)(F)F)c1)N1CCn2cnnc2C1 [Example 451, (S)-5-(2-((3-(5,6,7,8-Tetrahydro-[1,2,4]triazolo[4,3-a]pyrazine-7-carbonyl)phenoxy)methyl)pyrrolidin-1-yl)-4-(trifluoromethyl)pyridazin-3(2H)-one] |
| < 100 | N#Cc1ccc(N2CCN(C(=O)c3cccc(OC[C@@H]4C[C@H](C#N)CN4c4cn[nH]c(=O)c4C(F)(F)F)c3)CC2)nc1 [Example 452, 6-(4-(3-(((2S,4S)-4-Cyano-1-(6-oxo-5-(trifluoromethyl)-1,6-dihydropyridazin-4-yl)pyrrolidin-2-yl)methoxy)benzoyl)piperazin-1-yl)nicotinonitrile] |
| < 100 | N#CCc1ccc(N2CCN(C(=O)c3cccc(OC[C@@H]4CCCN4c4cn[nH]c(=O)c4C(F)(F)F)c3)CC2)cc1 [Example 453, (S)-2-(4-(4-(3-((1-(6-Oxo-5-(trifluoromethyl)-1,6-dihydropyridazin-4-yl)pyrrolidin-2-yl)methoxy)benzoyl)piperazin-1-yl)phenyl)acetonitrile] |
| < 100 | O=C(CCOC[C@@H]1CCCN1c1cn[nH]c(=O)c1C(F)(F)F)N1CCN(c2ccccn2)CC1 [Example 454, (S)-5-(2-((3-Oxo-3-(4-(pyridin-2-yl)piperazin-1-yl)propoxy)methyl)pyrrolidin-1-yl)-4-(trifluoromethyl)pyridazin-3(2H)-one] |
| < 100 | N#Cc1ccc(N2CCN(C(=O)c3cccc(NCC4CCCN4c4cn[nH]c(=O)c4C(F)(F)F)c3)CC2)nc1 (stereo not shown) [Example 455, 6-(4-(3-(((1-(6-Oxo-5-(trifluoromethyl)-1,6-dihydropyridazin-4-yl)pyrrolidin-2-yl)methyl)amino)benzoyl)piperazin-1-yl)nicotinonitrile] |
| < 100 | O=C(CCOC[C@@H]1CCCN1c1cn[nH]c(=O)c1C(F)(F)F)N1CCN(c2ncccn2)CC1 [Example 456, (S)-5-(2-((3-Oxo-3-(4-(pyrimidin-2-yl)piperazin-1-yl)propoxy)methyl)pyrrolidin-1-yl)-4-(trifluoromethyl)pyridazin-3(2H)-one] |
| < 100 | O=C(CCOC[C@@H]1CCCN1c1cn[nH]c(=O)c1C(F)(F)F)N1CCN(c2ncc(C(F)(F)F)cn2)CC1 [Example 457, (S)-5-(2-((3-Oxo-3-(4-(5-(trifluoromethyl)pyrimidin-2-yl)piperazin-1-yl)propoxy)methyl)pyrrolidin-1-yl)-4-(trifluoromethyl)pyridazin-3(2H)-one] |
| < 100 | O=C(CCOC[C@@H]1CCCN1c1cn[nH]c(=O)c1C(F)(F)F)N1CCN(c2ccc(C(F)(F)F)cn2)CC1 [Example 458, (S)-5-(2-((3-Oxo-3-(4-(5-(trifluoromethyl)pyridin-2-yl)piperazin-1-yl)propoxy)methyl)pyrrolidin-1-yl)-4-(trifluoromethyl)pyridazin-3(2H)-one] |
| 100 to 1000 | C[C@H]1CCN(c2cn[nH]c(=O)c2C(F)(F)F)[C@H]1COc1cccc(C(=O)N2CCN(c3ccc(C#N)cn3)CC2)c1 [Example 459, 6-(4-(3-(((2R,3S)-3-methyl-1-(6-oxo-5-(trifluoromethyl)-1,6-dihydropyridazin-4-yl)pyrrolidin-2-yl)methoxy)benzoyl)piperazin-1-yl)nicotinonitrile] |
| < 100 | C[C@@H]1CCN(c2cn[nH]c(=O)c2C(F)(F)F)[C@@H]1COc1cccc(C(=O)N2CCN(c3ccc(C#N)cn3)CC2)c1 [Example 460, 6-(4-(3-(((2S,3R)-3-methyl-1-(6-oxo-5-(trifluoromethyl)-1,6-dihydropyridazin-4-yl)pyrrolidin-2-yl)methoxy)benzoyl)piperazin-1-yl)nicotinonitrile] |
| < 100 | N#Cc1cnc(N2CCN(C(=O)CCOC[C@@H]3CCCN3c3cn[nH]c(=O)c3C(F)(F)F)CC2)nc1 [Example 461, (S)-2-(4-(3-((1-(6-Oxo-5-(trifluoromethyl)-1,6-dihydropyridazin-4-yl)pyrrolidin-2-yl)methoxy)propanoyl)piperazin-1-yl)pyrimidine-5-carbonitrile] |
| < 100 | N#Cc1ccc(N2CCN(C(=O)CCOC[C@@H]3CCCN3c3cn[nH]c(=O)c3C(F)(F)F)CC2)cc1 [Example 462, (S)-4-(4-(3-((1-(6-Oxo-5-(trifluoromethyl)-1,6-dihydropyridazin-4-yl)pyrrolidin-2-yl)methoxy)propanoyl)piperazin-1-yl)benzonitrile] |
| < 100 | N#Cc1cccnc1N1CCN(C(=O)CCOC[C@@H]2CCCN2c2cn[nH]c(=O)c2C(F)(F)F)CC1 [Example 463, (S)-2-(4-(3-((1-(6-Oxo-5-(trifluoromethyl)-1,6-dihydropyridazin-4-yl)pyrrolidin-2-yl)methoxy)propanoyl)piperazin-1-yl)nicotinonitrile] |
| ≥ 1000 | N#Cc1ccc(N2CCN(C(=O)c3cccc(OC[C@@H]4C[C@@H](C#N)CN4c4cn[nH]c(=O)c4C(F)(F)F)c3)CC2)nc1 [Example 464, 6-(4-(3-(((2S,4R)-4-Cyano-1-(6-oxo-5-(trifluoromethyl)-1,6-dihydropyridazin-4-yl)pyrrolidin-2-yl)methoxy)benzoyl)piperazin-1-yl)nicotinonitrile] |
| < 100 | N#Cc1ccc(N2CCN(C(=O)c3ccc(OCCOCC4CCN(c5cn[nH]c(=O)c5C(F)(F)F)C4)cc3)CC2)nc1 (stereo not shown) [Example 465, 6-(4-(4-(2-((1-(6-Oxo-5-(trifluoromethyl)-1,6-dihydropyridazin-4-yl)pyrrolidin-3-yl)methoxy)ethoxy)benzoyl)piperazin-1-yl)nicotinonitrile] |
| < 100 | N#Cc1ccc(N2CCN(C(=O)CCOCCOCC3CCN(c4cn[nH]c(=O)c4C(F)(F)F)C3)CC2)nc1 (stereo not shown) [Example 466, 6-(4-(3-(2-((1-(6-Oxo-5-(trifluoromethyl)-1,6-dihydropyridazin-4-yl)pyrrolidin-3-yl)methoxy)ethoxy)propanoyl)piperazin-1-yl)nicotinonitrile] |
| < 100 | N#Cc1ccc(N2CCN(C(=O)c3cccc(OCCOCC4CCN(c5cn[nH]c(=O)c5C(F)(F)F)C4)c3)CC2)nc1 (stereo not shown) [Example 467, 6-(4-(3-(2-((1-(6-Oxo-5-(trifluoromethyl)-1,6-dihydropyridazin-4-yl)pyrrolidin-3-yl)methoxy)ethoxy)benzoyl)piperazin-1-yl)nicotinonitrile] |
| < 100 | N#Cc1ccc(N2CCN(C(=O)CCOC[C@@H]3CCCN3c3cn[nH]c(=O)c3Cl)CC2)nc1 [Example 468, (S)-6-(4-(3-((1-(5-Chloro-6-oxo-1,6-dihydropyridazin-4-yl)pyrrolidin-2-yl)methoxy)propanoyl)piperazin-1-yl)nicotinonitrile] |
| < 100 | N#Cc1ccc(N2CCN(C(=O)c3cccc(OCC4CCN(c5cn[nH]c(=O)c5C(F)(F)F)C4)c3)CC2)nc1 (stereo not shown) [Example 469, 6-(4-(3-((1-(6-Oxo-5-(trifluoromethyl)-1,6-dihydropyridazin-4-yl)pyrrolidin-3-yl)methoxy)benzoyl)piperazin-1-yl)nicotinonitrile] |
| < 100 | N#Cc1ccc(N2CCN(C(=O)c3cccc(OCCOC[C@@H]4CCN(c5cn[nH]c(=O)c5C(F)(F)F)C4)c3)CC2)nc1 [Example 470, (R)-6-(4-(3-(2-((1-(6-Oxo-5-(trifluoromethyl)-1,6-dihydropyridazin-4-yl)pyrrolidin-3-yl)methoxy)ethoxy)benzoyl)piperazin-1-yl)nicotinonitrile] |
| < 100 | N#Cc1ccc(N2CCN(C(=O)c3cccc(OCCOC[C@H]4CCN(c5cn[nH]c(=O)c5C(F)(F)F)C4)c3)CC2)nc1 [Example 471, (S)-6-(4-(3-(2-((1-(6-oxo-5-(trifluoromethyl)-1,6-dihydropyridazin-4-yl)pyrrolidin-3-yl)methoxy)ethoxy)benzoyl)piperazin-1-yl)nicotinonitrile] |
| ≥ 1000 | C#CCOC[C@@H]1CCCN1c1cn[nH]c(=O)c1C(F)(F)F [Example 472, (S)-5-(2-((prop-2-yn-1-yloxy)methyl)pyrrolidin-1-yl)-4-(trifluoromethyl)pyridazin-3(2H)-one] |
| < 100 | CC1CN(c2ccc(C#N)cn2)CCN1C(=O)CCOC[C@@H]1CCCN1c1cn[nH]c(=O)c1C(F)(F)F (stereo partly drawn) [Example 473, 6-(3 -Methyl-4-(3-(((S)-1-(6-oxo-5-(trifluoromethyl)-1,6-dihydropyridazin-4-yl)pyrrolidin-2-yl)methoxy)propanoyl)piperazin-1-yl)nicotinonitrile] |
